In brackets after ≈: the same amount, converted by molar mass. Activity calls are given as the source filed them. The calls are words filed in the database; no cut-off is given here.
Key:
HepG2 [1] = test: Cytotoxicity against human HepG2 cells assessed as inhibition of cell proliferation after 48 hrs by CCK8 assay; format: functional, cell-based
HepG2 [2] = test: Increase in p21 expression in human HepG2 cells after 48 hrs by Western blot analysis; format: functional, cell-based
HepG2 [3] = test: Induction of apoptosis in human HepG2 cells assessed as assessed as accumulation at G0/G1 phase after 48 hrs by propidium iodide staining-based flow cytometric analysis (reference value: 70.8%); format: functional
HepG2 [4] = test: Effect on Cyclin A expression in human HepG2 cells after 48 hrs by Western blot analysis; format: functional, cell-based
HepG2 [5] = test: Induction of alteration in mitochondrial membrane potential in human HepG2 cells assessed as decrease Rh-123 fluorescence at 20 ug/ml after 48 hrs by flow cytometric analysis; format: functional; settings: HepG2, 48 h
HepG2 [6] = test: Effect on CDK2 expression in human HepG2 cells after 48 hrs by Western blot analysis; format: functional, cell-based
HepG2 [7] = test: Induction of apoptosis in human HepG2 cells transfected with p53 shRNA assessed as apoptotic cell accumulation after 48 hrs by annexin V/propidium iodide staining-based flow cytometric analysis; format: functional
HepG2 [8] = test: Cytotoxicity against human HepG2 cells assessed as decrease in positive staining after 1 hr by BrdU immunofluorescence assay relative to untreated control; format: functional
HepG2 [9] = test: Induction of apoptosis in human HepG2 cells transfected with pBabe-puro assessed as apoptotic cell accumulation after 48 hrs by annexin V/propidium iodide staining-based flow cytometric analysis; format: functional
HepG2 [10] = test: Effect on CDK4 expression in human HepG2 cells after 48 hrs by Western blot analysis; format: functional, cell-based
HepG2 [11] = test: Induction of alteration in mitochondrial membrane potential in human HepG2 cells assessed as decrease Rh-123 fluorescence at 5 ug/ml after 48 hrs by flow cytometric analysis; format: functional; settings: HepG2, 48 h
HepG2 [12] = test: Effect on Cyclin D1 expression in human HepG2 cells after 48 hrs by Western blot analysis; format: functional, cell-based
Mus musculus = test: Toxicity in human HepG2 cells injected in ip dosed mouse assessed as change in body weight; format: organism-based; settings: in vivo
HepG2 [13] = test: Induction of apoptosis in human HepG2 cells assessed as assessed as accumulation at G2/M phase after 48 hrs by propidium iodide staining-based flow cytometric analysis (reference value: 10.4%); format: functional
HepG2 [14] = test: Induction of apoptosis in human HepG2 cells assessed as assessed as accumulation at S phase after 48 hrs by propidium iodide staining-based flow cytometric analysis (reference value: 18.9%); format: functional
HepG2 [15] = test: Induction of apoptosis in human HepG2 cells assessed as assessed as increase in apoptotic cells after 48 hrs by annexin V/propidium iodide staining-based flow cytometric analysis; format: functional
HepG2 [16] = test: Induction of alteration in mitochondrial membrane potential in human HepG2 cells assessed as decrease Rh-123 fluorescence at 10 ug/ml after 48 hrs by flow cytometric analysis; format: functional; settings: HepG2, 48 h
HepG2 [17] = test: Induction of apoptosis in human HepG2 cells assessed as decrease in Bcl2 level after 48 hrs by Western blot analysis; format: functional, cell-based
HepG2 [18] = test: Cytotoxicity against human HepG2 cells assessed as inhibition of cell proliferation at 2.5 to 40 ug/ml by CCK8 assay; format: functional, cell-based; settings: TDE = time-dependent effect
HepG2 [19] = test: Induction of apoptosis in human HepG2 cells assessed as increase in Bax level after 48 hrs by Western blot analysis; format: functional, cell-based
HepG2 [20] = test: Induction of apoptosis in human HepG2 cells assessed as caspase 3 activation after 48 hrs by Western blot analysis; format: functional, cell-based
HepG2 [21] = test: Induction of apoptosis in human HepG2 cells transfected with pBabe-puro with Bcl2 assessed as apoptotic cell accumulation after 48 hrs by annexin V/propidium iodide staining-based flow cytometric analysis; format: functional
HepG2 [22] = test: Induction of alteration in mitochondrial membrane potential in human HepG2 cells assessed as decrease Rh-123 fluorescence after 48 hrs by flow cytometric analysis; format: functional, cell-based
HepG2 [23] = test: Antitumor activity against human HepG2 cells injected in ip dosed mouse assessed as reduction in tumor size treated for 13 days; format: functional
HepG2 [24] = test: Effect on CDK6 expression in human HepG2 cells after 48 hrs by Western blot analysis; format: functional, cell-based
[25] = Cytotoxicity against human L02 cells assessed as assessed as apoptotic cells after 48 hrs by annexin V/propidium iodide staining-based flow cytometric analysis; format: cell-based; settings: l02, 48 h
HepG2 [26] = test: Cytotoxicity against human HepG2 cells assessed as inhibition of cell proliferation at 20 ug/ml by MTT assay; format: functional
HepG2 [27] = test: Increase in p53 expression in human HepG2 cells after 48 hrs by Western blot analysis; format: functional, cell-based

**Q.** Which inhibition (HepG2 [1]) does the source give for `COc1cc(OC(=O)/C=C/c2ccc(O)cc2OC)ccc1O` here?
**A.** The inhibition was “Dose-dependent effect”.

**Q.** And the IC50 (HepG2 [1]; HepG2, 48 h)?
**A.** Its IC50 is 15.1 µg/mL (≈ 47.8 µM).

**Q.** What about the Activity (HepG2 [2]) of the same compound?
**A.** Its Activity is “Active”.

**Q.** And the Activity (HepG2 [3])?
**A.** The Activity was 52.6%.

**Q.** What about the Activity (HepG2 [4]) of the same compound?
**A.** Its Activity is “inactive”.

**Q.** And the inhibition at 20 µg/mL (HepG2 [5])?
**A.** Its inhibition at 20 µg/mL is 84.9%.

**Q.** What about the Activity (HepG2 [6]) of the same compound?
**A.** Its Activity is “inactive”.

**Q.** What about the Activity (HepG2 [7]) of the same compound?
**A.** The Activity was 68.8%.

**Q.** And the “inhibition (INH)” value (HepG2 [8])?
**A.** Its value is 40%.

**Q.** What about the Activity (HepG2 [9]) of the same compound?
**A.** The Activity was 75.4%.

**Q.** What about the Activity (HepG2 [10]) of the same compound?
**A.** Its Activity is “inactive”.

**Q.** And the inhibition at 5 µg/mL (HepG2 [11])?
**A.** Its inhibition at 5 µg/mL is 37.1%.

**Q.** And the Activity (HepG2 [12])?
**A.** The Activity was “inactive”.

**Q.** What about the Activity (Mus musculus) of the same compound?
**A.** The Activity was “Non-toxic”.

**Q.** What about the Activity (HepG2 [13]) of the same compound?
**A.** Its Activity is 11.4%.

**Q.** What about the Activity (HepG2 [14]) of the same compound?
**A.** Its Activity is 36%.

**Q.** What about the Activity (HepG2 [15]) of the same compound?
**A.** The Activity was 89.9%.

**Q.** And the inhibition at 10 µg/mL (HepG2 [16])?
**A.** Its inhibition at 10 µg/mL is 69.5%.

**Q.** What about the inhibition (HepG2 [17]) of the same compound?
**A.** The inhibition was “Active”.

**Q.** And the inhibition (HepG2 [18])?
**A.** Its inhibition is “tde”.

**Q.** And the Activity (HepG2 [19])?
**A.** The Activity was “Active”.

**Q.** And the Activity (HepG2 [20])?
**A.** The Activity was “Active”.

**Q.** What about the Activity (HepG2 [21]) of the same compound?
**A.** The Activity was 26.9%.

**Q.** What about the inhibition (HepG2 [22]) of the same compound?
**A.** The inhibition was “Dose-dependent effect”.

**Q.** What about the “inhibition (INH)” value (HepG2 [23]) of the same compound?
**A.** The value was 50%.

**Q.** What about the Activity (HepG2 [24]) of the same compound?
**A.** The Activity was “inactive”.

**Q.** What about the Activity [25] of the same compound?
**A.** The Activity was “Non-toxic”.

**Q.** And the inhibition at 20 µg/mL (HepG2 [26])?
**A.** Its inhibition at 20 µg/mL is 37%.

**Q.** And the Activity (HepG2 [27])?
**A.** Its Activity is “Active”.

— ChEMBL document CHEMBL3352426, “A natural phenylpropionate derivative from Mirabilis himalaica inhibits cell proliferation and induces apoptosis in HepG2 cells” (Bioorg Med Chem Lett, 2014)
